# Source: publication PMC12320299 (Chemical Science, 2025)
# Legend:
# [1] = molecular target: T1, ATP-dependent RNA helicase DDX3X (Homo sapiens, UniProt O00571); experiment: Peptide centric local stability assay in SW480 whole cell lysate; format: binding; details: 1 μM
# T1 construct: endogenous in cells; host or cells: SW480 whole cell lysate
# Source text: The method relies on a limited-proteolysis strategy, where ligand-binding on target proteins is expected to increase the stability of the proteins against proteolytic digestion. This specifically enables the identification of target proteins of small molecules. […] Being a ruthenium(arene) derivative, plecstatin-1 was used to assess potential non-specific interactors of the ruthenium(cymene) fragment. […] However, among the selective interaction partners, we found specific peptides of ATP-dependent RNA helicase DDX3X, tubulin alpha-1A (TUBA1A) and albumin (ALB). Several peptides of TUBA1A and ALB were also found to be stabilized by plecstatin-1 indicating low specificity.
# Peptide Local Stability Assay
# SW480 cancer cells were cultivated in complete medium as above in two T75 adherent flasks.
# The protein extraction was performed on ice. The flasks were washed twice with PBS (1×, 5 mL) and the wash solution was completely removed. Then, PBS (1×, 2mL, containing 1% PPC) was added in each T75 flak. The cells were scraped off and the cell suspension was transferred to 15 mL falcon tubes. […]
# The clear supernatant was pooled in a 5 mL Eppendorf tube and kept on ice. The protein concentration was determined using a BCA assay as described above and adjusted to 1 µg/µL using PBS (1×, containing 1% PPC). […]
# [2] = Histological evaluation of liver (H&E); format: in vivo, BALB/c mice; details: 10 mg kg^−1 i.p., five consecutive days
# Description: Liver tissue for histological assessment was fixed with formaldehyde and then paraffin-embedded. Haematoxylin and eosin (H&E) was used to stain tissue slices.
# Animals. All experiments were carried out with male Balb/c mice according to the regulation of the Ethics Committee for the Care and Use of Laboratory Animals at the Medical University Vienna (BMWF-2022-0.770.291), the guidelines from the Austrian Animal Science Association and the Federation of European Laboratory Animal Science Associations (FELASA). The animals were kept in a pathogen-free conditions, controlled environment with 12 h light–dark cycle with ad libitum access to food and water. Every procedure was done in a laminar airflow […]
# Treatment. CT-26 cells ([…] in 50 μL serum-free medium) were injected subcutaneously (s.c.) into the right flank of ten– to eleven-week-old male Balb/c mice. Three days after cell injection, all compounds (dissolved in 10% DMSO in water) were administered […]
# 1b/2b. Regarding anticancer activity experiments, mice were treated on 5 consecutive days over 2 weeks. Four hours after the last treatment 1a-treated mice were sacrificed and analysed for ruthenium levels in tissue via ICP-MS measurements. In case of the proteomic profiling […]
# in water for 5 consecutive days. On the last day, 2 h after the last treatment, mice were euthanized, and blood was collected in an EDTA tube via heart punctation. […]
# T1 sequence (O00571 whole entry): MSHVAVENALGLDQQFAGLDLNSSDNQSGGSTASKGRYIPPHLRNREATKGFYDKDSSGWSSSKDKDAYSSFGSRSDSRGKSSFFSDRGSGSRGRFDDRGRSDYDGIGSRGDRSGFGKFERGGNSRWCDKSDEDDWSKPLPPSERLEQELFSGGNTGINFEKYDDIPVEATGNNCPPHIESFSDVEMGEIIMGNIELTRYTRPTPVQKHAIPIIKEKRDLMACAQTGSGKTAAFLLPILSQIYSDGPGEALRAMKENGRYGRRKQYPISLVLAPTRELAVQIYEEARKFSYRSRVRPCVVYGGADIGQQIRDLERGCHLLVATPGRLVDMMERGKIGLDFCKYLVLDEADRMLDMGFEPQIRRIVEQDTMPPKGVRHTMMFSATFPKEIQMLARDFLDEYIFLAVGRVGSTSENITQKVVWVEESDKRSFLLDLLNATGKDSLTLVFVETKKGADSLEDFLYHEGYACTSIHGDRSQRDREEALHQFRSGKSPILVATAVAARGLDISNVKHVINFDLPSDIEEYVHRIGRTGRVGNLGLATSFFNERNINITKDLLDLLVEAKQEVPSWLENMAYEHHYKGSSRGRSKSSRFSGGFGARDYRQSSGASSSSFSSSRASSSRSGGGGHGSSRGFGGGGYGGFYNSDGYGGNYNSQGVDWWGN
compound,measurement,setting,value
"CCC1=C2[O][Ru][O]C2(n2cccn2)c2ccccc2C1=O.Cc1ccc(C(C)C)cc1 (centres unmarked) [Compound 1a, [(3-ethyl-4-oxo-(pyrazolyl)-dihydronaphthalene)(cymene)ruthenium(II)]]",direct interaction with DDX3X,[1],most probable direct binding partner
same,liver histology (H&E),[2],largely healthy physiology
